The text below walks through data of paper PMC12563652 (International Journal of Molecular Sciences, 2025).

Each structure is given as a SMILES string.

One assay concerns the target T1, human TAAR1 (Homo sapiens, UniProt Q96RJ0).
T1 sequence (Q96RJ0 1-339): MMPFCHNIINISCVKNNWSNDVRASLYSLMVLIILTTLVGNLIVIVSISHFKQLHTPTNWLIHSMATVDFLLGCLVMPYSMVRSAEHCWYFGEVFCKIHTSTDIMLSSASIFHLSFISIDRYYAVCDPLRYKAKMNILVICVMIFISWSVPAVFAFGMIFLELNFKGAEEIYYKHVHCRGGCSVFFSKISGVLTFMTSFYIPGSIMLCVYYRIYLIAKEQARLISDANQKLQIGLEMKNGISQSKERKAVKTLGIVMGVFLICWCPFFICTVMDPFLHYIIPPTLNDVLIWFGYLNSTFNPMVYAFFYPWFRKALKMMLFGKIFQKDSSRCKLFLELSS
The assay is described as follows: TAAR1 antagonist activity, Hit Hunter cAMP assay. The note with it: n.a. = no activity at 10–5 M; read-out: TAAR1 Ant EC50. The format is cell-based.

The next assay has as its system HepG2 cells. In words: Glucose consumption (Amplex Red assay) in HepG2 cells. The assay is classed as cell-based, human. To be noted: 10 µM; relative to vehicle-treated cells. Here is the method:
The HepG2 human hepatocellular carcinoma cell line (ATCC® HB-8065™) was cultured in DMEM supplemented with 10% FBS, 100 µg/mL streptomycin, and 100 IU/mL penicillin at 37 °C in 5% CO2. Cells were seeded in 96-well plates at a density of 10,000 cells/well and used for experiments 24 h after plating.
Stock solutions of test compounds were prepared at a concentration of 10 mM in dimethyl sulfoxide (DMSO). At least 1 mg of each substance was carefully measured and mixed with the right amount of DMSO. A series of dilutions were made in DMSO and then further diluted in phosphate-buffered saline before being introduced into the cell culture medium. Precipitation or opalescence was assessed prior to application.
The glucose uptake was measured with the Amplex® Red Glucose/Glucose Oxidase Assay Kit from Thermo Fisher Scientific, following the guidelines provided by the maker. Cell culture supernatants were collected and incubated with a reaction mix containing 100 μM Amplex® Red reagent, 0.2 U/mL horseradish peroxidase (HRP), and 1 U/mL glucose oxidase at room temperature for 30 min in the dark. Fluorescence was measured at 530 nm excitation and 590 nm emission using the POLARstar Omega plate reader (BMG Labtech).

A further assay deals with C57BL/6 mice. In words: Inhibition of gastric emptying (mouse model, phenol red). The assay is classed as in vivo. The note with it: 5 mg/kg b.w. alone. Here is the method:
Fifty male C57BL/6 mice (22–27 g) were housed in standard cages while maintaining a 12:12-h light/dark cycle, with food and water available ad libitum. The experimental procedures were performed from 10:00 a.m. to 14:00 p.m.
The experiment was conducted according to Miyasaka et al. and Kotańska et al., with some minor modifications. Mice were subjected to a 20 h food deprivation and a 2 h water deprivation prior to testing. The animals received a vehicle (0.25 mL/mouse) alone or along with various compounds: JP-14 (10 mg/kg b. w.), RT (5 mg/kg body weight), metformin (100 mg/kg b. w.), or loperamide (reference compound; 10 mg/kg b. w.) via gastric gavage. Following a 45 min interval, phenol red (0.5 mL, 0.05% w/v) combined with glucose (1 g/kg body weight) was administered through the same route. Additionally, each group received an intraperitoneal injection of heparin (2500 U/mouse) 20 min prior to the collection of stomach contents. Seven mice treated with the vehicle were sacrificed immediately after the phenol red administration to serve as a standard control (representing 100% phenol red in the stomach at 0 min), establishing a baseline for maximum absorbance (100%). The leftover mice were sacrificed 30 min later. The stomachs were removed and homogenized using an OMNI homogenizer (OMNI International Company, Kennesaw, GA, USA), with 10 mL of 0.1 N NaOH. To 5 mL of homogenate, 0.5 mL of 20% w/v solution of trichloroacetic acid was incorporated to precipitate the proteins. Subsequently, the samples were centrifuged at 600× g for 15 min at a temperature of 20 °C, and 0.25 mL of supernatant was mixed with 1 mL of 0.5 N NaOH to achieve maximum color intensity. The concentration of phenol red was measured using spectrophotometry, with absorbance evaluated at a wavelength of 560 nm (MuLTISKAN.GO, Thermo Fisher Scientific Inc., Waltham, MA USA). For each mouse, the percentage of gastric emptying (GE %) was calculated using the following equation:(1) GE%=(Ac0−Ab)/(Ac0−Ac30)×100% where: Ac0 is the absorbance of the control gastric sample collected immediately after dye administration, and Ac30 is the absorbance of the control gastric sample collected 30 min after dye administration, i.e., Ac0–Ac30 = 100% gastric emptying.

Assay [1] has as its system platelet aggregation in rat whole blood. The assay is described as follows: In vitro collagen-induced platelet aggregation in rat whole blood (impedance aggregometry). The format is cell-based. The note with it: 100 µM, collagen 1.6 µg/mL. Here is the method: In vitro platelet aggregation assays were conducted using freshly collected whole blood from rats, utilizing the Multiplate platelet function analyzer (Roche Diagnostics, Mannheim, Germany)—a five-channel device that measures electrical impedance, following methods described previously. Upon stimulation, platelets adhere to and aggregate on dual metal sensors within the test cuvette, causing an increase in electrical resistance, which corresponds to the number of platelets attached to the electrodes.
Blood was collected from the carotid artery of the rat into tubes coated with hirudin (S-Monovette, Sarstedt, Germany). A volume of 300 μL of the anticoagulated blood was mixed with 300 μL of prewarmed isotonic saline that contained the test compound or a vehicle control (0.1% DMSO) and incubated at 37 °C for 3 min under continuous stirring. Aggregation was triggered by adding collagen (final concentration: 1.6 µg/mL). Platelet activity was monitored for 6 min. Multiplate V2.04 software calculated the area under the curve (AUC) for each measurement to determine average platelet response.

One may read the EC50 as the concentration at which the effect is half-maximal. On to `N#Cc1c(C(F)(F)F)cc(-c2ccc(Cl)cc2)nc1SCC(=O)Nc1ncccn1` [RTI-7470-44], for which the EC50 at human TAAR1 was found to be 168 ± 50.7 nM. The “increase in glucose consumption (uptake)” value in the assay on HepG2 cells is “no significant changes”. Also, the “effect on gastric emptying” value in the assay on C57BL/6 mice was “did not affect emptying”. Moreover, the “reduction of collagen-induced platelet aggregation” value in assay [1] is 41.75%.
